Assay results reported in US20090069343A1, “Combination Histamine H1R and H4R Antagonist Therapy for Treating Pruritus” (priority 2006, published 2009).

How the values were obtained:
Assay type in all cases: in vivo, mouse
[1] = test system: CD-1 mice, histamine-induced itch; assay: Histamine-induced itch, Example 1a; details: oral dose 20 min before i.d. histamine, FIG. 8
Method: Methods. Experiments and procedures were performed under on-site IACUC standards and regulations. Female CD-1 mice (Charles River Hollister, Calif.) of approximately 10-12 weeks of age were used. Mice were housed under controlled light (6:00-18:00 h) and temperature (22° C.) with food and water available ad libitum. Histamine diphosphate (Sigma, St. Louis, Mo.) was dissolved in Dulbecco's phosphate buffered saline (PBS, pH=7.4) at various concentrations. H4R Inhibitor 1 was synthesized as described by Jablonowski et al. (J. Med. Chem. (2003), 46, 3957-3960), dissolved in a vehicle of 20% HPBCD/water at various concentrations, and administered per os (p.o.; by mouth) at a volume of 10 ml/kg. Antagonists of other histamine receptors, H1R (diphenhydramine and desloratadine), H2R (ranitidine) and H3R (1-[3-(4-piperidin-1-ylmethyl-phenoxy)-propyl]-piperidine, (“H3R Antagonist 1”; synthesized as described by Barbier et al., British J. Pharmacology (2004), 143: 649-661) were formulated similarly for use in experiments. In all experiments the hair was clipped over the rostral part of the back 24 hours prior to i.d. injection of pruritogen. Where noted, animals received an oral dose of histamine receptor antagonist 20 minutes prior to injection of pruritogen. Animals were injected i.d. with 20 μl of histamine. PBS was given as the vehicle control (“V). Immediately after intradermal injection, the animals were returned to an acrylic cage (approx. 15 cm dia×30 cm) to which they had been acclimated for at least 1 hour prior to the experiment, for observation of itch responses.

[2] = test system: CD-1 mice, Compound 48/80-induced itch; assay: Compound 48/80-induced itch, Example 1b; details: oral dose 20 min before i.d. Compound 48/80, FIG. 9
Method: Methods. Experiments and procedures were performed under on-site IACUC standards and regulations. Female CD-1 mice (Charles River Hollister, Calif.) of approximately 10-12 weeks of age were used. Mice were housed under controlled light (6:00-18:00 h) and temperature (22° C.) with food and water available ad libitum. Compound 48/80 (Sigma, St. Louis, Mo.) was dissolved in Dulbecco's phosphate buffered saline (PBS, pH=7.4) at 5 mg/ml. H4R Inhibitor 1 (synthesized as previously described) was dissolved in a vehicle of 20% HPBCD/water at various concentrations and administered p.o. at a volume of 10 ml/kg. […] In all experiments the mouse hair was clipped over the rostral part of the back 24 hours prior to i.d. injection of pruritogen. Where noted, animals received an oral dose of histamine receptor antagonist 20 min prior to injection of pruritogen. Animals were injected i.d. with 20 μl of Compound 48/80 or were given PBS as a vehicle control. Immediately after intradermal injection, the animals were returned to an acrylic cage (approx. 15 cm diameter×30 cm height) to which they had been acclimated for at least 1 h prior to the experiment, for observation of itch responses.

[3] = test system: Balb/c mice, Compound 48/80-induced itch response; assay: Compound 48/80-induced itch response (scratches in 20 min), background example; details: for inhibition of itch response: Compound 48/80, FIG. 2
Method: The role of histamine H4 receptor in itch responses was evaluated in mice.

[4] = test system: mice, histamine-induced scratching; assay: Histamine-induced scratching, background example; details: FIG. 4
Method: To evaluate the direct role of histamine in the pruritic response, histamine was injected in to the skin of mice and the amount of scratching measured.

[5] = test system: mice, H4R agonist-induced scratching; assay: Selective H4R agonist-induced scratching, background example; details: oral administration; FIG. 6

Clc1ccc2c(c1)CCc1cccnc1C2=C1CCNCC1 [desloratadine]
effect on histamine-induced itch [1]: no effect

c1cc(OCCCN2CCCCC2)ccc1CN1CCCCC1 [H3R Antagonist 1, 1-[3-(4-piperidin-1-ylmethyl-phenoxy)-propyl]-piperidine]
effect on histamine-induced itch [1]: neither the H2R antagonist ranitidine nor the H3R antagonist demonstrated significant inhibition

CN(C)CCOC(c1ccccc1)c1ccccc1 [diphenhydramine, reference compound]
effect on histamine-induced itch [1]: Small but significant inhibition | effect on Compound 48/80-induced itch [2]: Small but significant inhibition

CN1CCN(C(=O)c2cc3cc(Cl)ccc3[nH]2)CC1 [H4R Inhibitor 1]
inhibition of itch response ([3]; 3 mg/kg): 12% | reduction of itch response ([3]; 30 mg/kg orally prior to Compound 48/80 injection, Balb/c mice): 62.5% | inhibition of itch response ([3]; 100 mg/kg (maximally active)): 68% | inhibition of histamine-induced scratching ([4]; 3 mg/kg oral pre-treatment): 17% | inhibition of histamine-induced scratching ([4]; 30 mg/kg oral pre-treatment (maximal)): 75% | effect on histamine-induced scratching ([4]; oral pre-treatment): dose-dependently inhibited | effect on H4R agonist-induced scratching [5]: inhibitable | effect on histamine-induced itch [1]: significant reduction of histamine-induced itch | effect on Compound 48/80-induced itch [2]: significantly reduced the itch
